Source: ChEMBL document CHEMBL1153648, “1,4-Benzodiazepin-2-one derived neurokinin-1 receptor antagonists” (Bioorg Med Chem Lett, 1997)
pIC50, pKi: −log10 of the molar value.

Target: T1, Cholecystokinin receptor type A (Homo sapiens, UniProt P32238)
T1 sequence (P32238 whole entry): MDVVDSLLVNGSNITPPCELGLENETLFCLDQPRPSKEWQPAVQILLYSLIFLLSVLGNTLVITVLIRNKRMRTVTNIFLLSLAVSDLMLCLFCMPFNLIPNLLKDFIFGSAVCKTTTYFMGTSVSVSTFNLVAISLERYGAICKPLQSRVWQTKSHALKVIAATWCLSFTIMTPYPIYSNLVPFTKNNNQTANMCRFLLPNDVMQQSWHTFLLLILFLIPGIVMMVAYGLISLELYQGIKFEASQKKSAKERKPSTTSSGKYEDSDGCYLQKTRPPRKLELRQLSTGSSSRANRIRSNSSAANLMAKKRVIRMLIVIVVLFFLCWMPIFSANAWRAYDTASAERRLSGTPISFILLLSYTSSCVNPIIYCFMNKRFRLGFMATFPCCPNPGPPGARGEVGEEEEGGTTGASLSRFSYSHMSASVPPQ
Assay: Concentration required for 50% inhibition of cholecystokinin A(CCK A)

| pIC50 | Compound |
| --- | --- |
| 6.72 | CCCCCN(CCCCC)C(=O)C(Cc1c[nH]c2ccccc12)NC(=O)c1ccc(Cl)c(Cl)c1 (stereo not given) |

Target: T2, Substance-P receptor (Homo sapiens, UniProt P25103)
Assay: Tested for affinity against NK-1(Neurokinin-1) receptor expressed as pKi

T2 sequence (P25103 whole entry): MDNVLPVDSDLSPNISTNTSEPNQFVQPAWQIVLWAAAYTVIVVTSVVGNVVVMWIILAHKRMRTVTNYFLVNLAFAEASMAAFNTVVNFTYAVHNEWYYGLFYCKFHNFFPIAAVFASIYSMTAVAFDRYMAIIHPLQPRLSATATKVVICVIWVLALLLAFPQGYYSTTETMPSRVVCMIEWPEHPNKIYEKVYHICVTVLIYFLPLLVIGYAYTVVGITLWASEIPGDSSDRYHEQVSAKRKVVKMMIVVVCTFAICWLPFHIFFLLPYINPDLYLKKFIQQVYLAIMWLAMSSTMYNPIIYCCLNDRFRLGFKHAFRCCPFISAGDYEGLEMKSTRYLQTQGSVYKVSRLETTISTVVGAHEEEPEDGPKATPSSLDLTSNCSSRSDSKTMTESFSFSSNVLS

| Compound | pKi |
| --- | --- |
| CC1c2ccccc2N(C)C(=O)CN1C(=O)N(C)Cc1cc(C(F)(F)F)cc(C(F)(F)F)c1 (stereo not given) | 6.00 |
| CC1c2ccccc2NCCN1C(=O)N(C)Cc1cc(C(F)(F)F)cc(C(F)(F)F)c1 (stereo not given) | 7.40 |

Results, then the compound that gave them:

| pKi | Compound |
| --- | --- |
| 6.10 | CN(Cc1cc(C(F)(F)F)cc(C(F)(F)F)c1)C(=O)N1CC(=O)Nc2ccccc2C1CN1CCOCC1 (stereo not given) |
| 8.00 | CN(Cc1cc(C(F)(F)F)cc(C(F)(F)F)c1)C(=O)N1CC(=O)Nc2ccccc2C1c1ccccc1 (stereo not given) |
| 6.20 | O=C1CN(C(=O)NCc2cc(C(F)(F)F)cc(C(F)(F)F)c2)C(c2ccccc2)c2ccccc2N1 (stereo not given) |
| 7.50 | CC1c2ccccc2NC(=O)CN1C(=O)N(C)Cc1cc(C(F)(F)F)cc(C(F)(F)F)c1 (stereo not given) |
| 6.50 | COC(=O)C1c2ccccc2NC(=O)CN1C(=O)N(C)Cc1cc(C(F)(F)F)cc(C(F)(F)F)c1 (stereo not given) |
| 6.00 | CN(Cc1ccccc1)C(=O)N1CC(=O)Nc2ccccc2C1c1ccccc1 (stereo not given) |

Target: T2, Substance-P receptor
Assay: Concentration required for 50% inhibition of neurokinin-1 receptor

| pIC50 | Compound |
| --- | --- |
| 6.12 | CC(=O)NC(Cc1c[nH]c2ccccc12)C(=O)N(C)Cc1ccccc1 (stereo not given) |
